Test results: patent US6998383B2, “Inhibitors of receptor activator of NF-κB and uses thereof” (Research Development Corporation, priority 2001, dated 2006)

Key:
[1] = biological target: T1, TRAF6 binding to the RANK cytoplasmic domain (Mus musculus, UniProt P70196); assay: Competitive GST-pull down assay, TRAF6 binding to RANK cytoplasmic domain; details: 100 μM peptide, FLAG-TRAF6 293 cell extract, GST-RANK cytoplasmic domain (FIG. 4C)
T1 construct: expressed in transfected cells; host or cells: human 293 cells (TRAF lysate); The GST-RANK fusion was purified as previously described
T1 sequence (P70196 1-530): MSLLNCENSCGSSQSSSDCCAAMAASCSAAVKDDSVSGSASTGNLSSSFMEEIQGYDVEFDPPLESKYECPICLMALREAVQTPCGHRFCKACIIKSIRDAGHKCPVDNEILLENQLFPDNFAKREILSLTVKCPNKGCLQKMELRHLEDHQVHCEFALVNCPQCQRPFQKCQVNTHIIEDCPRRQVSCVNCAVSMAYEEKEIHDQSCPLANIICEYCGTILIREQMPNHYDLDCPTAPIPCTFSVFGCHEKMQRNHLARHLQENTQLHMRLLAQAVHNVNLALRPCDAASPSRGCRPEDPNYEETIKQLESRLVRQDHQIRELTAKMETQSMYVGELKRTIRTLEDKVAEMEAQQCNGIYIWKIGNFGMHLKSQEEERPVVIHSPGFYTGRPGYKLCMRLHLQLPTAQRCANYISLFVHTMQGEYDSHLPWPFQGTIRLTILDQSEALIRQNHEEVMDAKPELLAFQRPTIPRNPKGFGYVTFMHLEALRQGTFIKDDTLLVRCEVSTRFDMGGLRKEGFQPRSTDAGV
Procedure: Cellular extracts from human 293 cells transfected with either FLAG-TRAF2, -TRAF5, or -TRAF6 were mixed with GST or GST-RANKed in the absence or presence of 100 μM of the indicated peptides. A GST-pull down assay was performed as described below. The bound TRAFs were visualized by immunoblotting with anti-FLAG antibodies.
Equivalent amounts of GST or GST-RANK cytoplasmic domain (GST-RANKed) fusion protein attached to 20 μl of glutathione agarose beads were mixed with lysates (50 μg) from 293 cells programmed to express the epitope-tagged TRAF protein and the indicated peptides in binding buffer (20 mM TRIS, pH 8, 150 mM NaCl, 1 mM DTT, 2 mM EDTA, and 0.1% NP-40) and allowed to rotate for 1 h at 4° C. The beads were collected by centrifugation, washed three times in binding buffer, and then washed once in low-salt buffer (20 mM TRIS, pH 8, 50 mM NaCl, and 1 mM DTT). Bound proteins were eluted with addition of SDS-sample buffer and boiled. The eluted proteins were subjected to 7.5% SDS-PAGE and western blot analysis was performed with anti-FLAG antibodies.
The cytoplasmic domain of RANK interacts with many TRAF molecules, including TRAF1, 2, 3, 5, and 6 (7-9, 11, 12). While TRAF1, 2, 3, and 5 interact with the c-terminal tail of receptor activator of NF-κB, TRAF6 interacts with a membrane proximal region of the cytoplasmic domain of the receptor activator of NF-κB. […]

JNK = assay: RANKL-mediated JNK activation in RAW264.7 cells (immune complex kinase assay, GST-Jun (1-79) substrate); assay type: cell-based, mouse; details: peptide 6 h, RANKL 10 nM 15 min (FIG. 5A)
Procedure: RAW264.7 cells were plated in 6-well plates and treated with the indicated peptides for 6 h, then treated with RANKL (10 nM) for 15 mm. Whole cell extracts were prepared and 30 μg of cell lysate was immunoprecipitated with anti-JNK1. In vitro kinase assays were performed using GST-Jun (1-79) as the substrate as described below.
Lysates were prepared from RAW cells stimulated with RANKL as indicated in the legends to the figures. Approximately 30 μg was then used for immunoprecipitation with indicated antibodies and protein A/G Sepharose beads for 1 h. Beads were collected by centrifugation, washed three times in lysis buffer, and then washed two times in low-salt buffer. JNK activity was analyzed using exogenous GST-Jun (1-79) as a substrate as previously described (8). Kinase activity was quantitated using a PhosphoImager and Imagequant Software (Molecular Dynamics, Sunnyvale, Calif.).
Stimulation of the receptor activator of NF-κB activates members of the MAPK family including JNK, ERK and p38 kinase. The ability of the TRAF6 binding peptides to inhibit the receptor activator of NF-κB ligand-induced JNK, ERK, and p38 kinase activation was examined in RAW264.7 cells. […] Similar to the results with JNK, only L-T6DP-1 was able to block ERK (FIG. 5B) and p38 kinase (FIG. 5C) activation induced by the receptor activator of NF-κB ligand in RAW264.7 cells.

IκB = IκB degradation in RANKL-treated RAW264.7 cells (anti-IκB immunoblot); assay type: cell-based, mouse; details: cytoplasmic extracts of RAW264.7 cells from FIG. 4A (FIG. 4B)
Procedure: RAW264.7 cells were plated in 6-well plates and treated with the indicated peptides for 5 h, then treated with RANKL (10 nM) for 15 mm. Nuclear and cytoplasmic extracts were prepared and a gel mobility shift assays was performed with 8 μg of nuclear extracts as described below.
Cytoplasmic extracts (30 μg) from FIG. 4A were immunoblotted with anti-IκB as described below.
293 cells were plated at 0.6×10^6 cells/well on 6-well plates and transfected the next day as described (8). Total amount of plasmid DNA was kept constant by adding empty pCMVFLAG1 vector. Cells and the conditioned supernatants were harvested 24-36 h after transfection. Lysates were prepared as described (8). For western blot analysis, whole-cell lysates (15-30 μg) or proteins from GST-affinity precipitation were separated by 8.5% SDS-PAGE, electroblotted onto nitrocellulose membranes, and incubated with the indicated antibodies. The membranes were then developed using the enhanced chemiluminescence (ECL) system (Amersham, Chicago, Ill.).

L-T6DP-1: Kaposi fibroblast growth factor signal sequence hydrophobic domain attached to murine RANK peptide containing the known TRAF6 binding domain (AAVALLPAVLLALLAPRKIPTEDEYTDRPSQPST; PEPTIDE Peptide L-T6Bp-1)
TRAF6 interaction with the cytoplasmic domain of RANK [1]: inhibited | RANKL-mediated JNK activation (JNK): capable of inhibiting | IκB degradation (IκB): inhibition
